pIC50: −log10 of the molar value.

Consider 6 compounds from US20110098296A1, “Thiazole And Oxazole Kinase Inhibitors” (priority 2007, published 2011).

In assay [1] the test system is BT474 tumor cells. Description: Method B: CellTiter-Glo Growth Inhibition Assay, BT474. Particulars: Homo sapiens, BT-474, 72 h, 3 days. Format: cell-based. An outline of the steps:
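Cells plated (BT474 3,000, HN5 500, Colo205 3,000 per well) in RPMI or DMEM with 10% FBS; compounds added next day, final DMSO 0.3%, then 3 days at 37° C, 5% CO2. Viability by CellTiter-Glo luminescence; percent inhibition versus vehicle, IC50 interpolated by nonlinear regression.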

The test system of assay [2] is HN5 tumor cells. Description: Method A: Methylene Blue Growth Inhibition Assay, HN5. The format is cell-based. Particulars: Homo sapiens, 72 h, 3 days. On the procedure: (§1) Human breast (BT474) and head and neck (HN5) tumor cells were cultured in low glucose DMEM (Life Technologies 12320-032) containing 10% fetal bovine serum (FBS). Human colon tumor cells (Colo205) were cultured in DMEM (Invitrogen, 10564) containing 10% FBS. The SV40 transformed human mammary epithelial cell line HB4a was transfected with either human H-ras cDNA (HB4a r4.2) or the human c-ErbB2 cDNA (HB4a c5.2). The HB4a clones were cultured in RPMI containing 10% FBS, insulin (5 g/mL), hydrocortisone (5 g/mL), supplemented with the selection agent hygromycin B (50 g/mL). All lines were grown in a humidified incubator at 37° C. in 95% air, 5% CO2. Cells were harvested using trypsin/EDTA, counted using a haemocytometer, and plated in 100 μL of the appropriate media, at the following densities, in a 96-well tissue culture plate (Falcon 3075): BT474 10,000 cells/well, HN5 3,000 cells/well. The next day, compounds were diluted in DMEM containing […] gentamicin, at twice the final required concentration, from 10 mM stock solutions in DMSO. 100 μl/well of these dilutions were added to the 100 μL of media currently on the cell plates. Medium containing 0.6% DMSO was added to control wells. Compounds diluted in DMEM were added to all cell lines. The final concentration of DMSO in all wells was 0.3%. Cells were returned to the incubator (37° C., […]) for 3 days. Medium was then removed by aspiration. Cell biomass was estimated by staining cells with 90 μL/well methylene blue (Sigma M9140, 0.5% in 1:1 EtOH:H2O), and incubation at room temperature for at least 30 minutes. Stain was removed, and the plates rinsed by immersion in deionized H2O and air-dried. To release stain from the cells 100 μL of solubilization solution were added (1% N-lauroyl sarcosine, sodium salt, Sigma L5125, in PBS), and plates were shaken gently for about 30 minutes. Optical density at 620 nm was measured on a microplate reader. Percent inhibition of cell growth was calculated relative to vehicle-treated control wells. Concentration of compound that inhibits 50% of control cell growth (IC50) was interpolated using nonlinear regression (Levenberg-Marquardt) and the equation,
(§2) y=Vmax*(1−(x/(K+x)))+Y2, where “K” was equal to the IC50.

The target in assay [3] is B-Raf (Homo sapiens, UniProt P15056). Description: B-Raf Accelerated MEK ATPase assay (BRAMA). The format is biochemical. Particulars: Method (A): BRAMA, kinetic read. On the procedure:
Compounds of the present invention were tested for B-Raf protein serine kinase inhibitory activity in a B-Raf Accelerated MEK ATPase assay (BRAMA). The BRAMA assay is a high sensitivity assay which measures an intrinsic MEK-mediated ATP hydrolysis uncoupled from downstream ERK phosphorylation by coupling the formation of ADP to NADH oxidation through the enzymes pyruvate kinase and lactate dehydrogenase. When ADP production is initiated by addition of catalytic amounts of an activated Raf enzyme and non-phosphorylated MEK, one observes robust ADP production concomitant with Raf-mediated phosphorylation of MEK.
Method A: Specific details of the assay are disclosed in: C. Rominger, M. Schaber, E. May. Assay for B-Raf Activity Based on Intrinsic MEK ATPase Activity. Statutory Invention Registration Ser. No. 11/084,993 (March, 2005). Method B: The method is the same as method A, but includes the following changes: 1) the assay was performed with a final MEK concentration of 150 nM and 2) the assay was read as single end point instead of a kinetic read.

In assay [4] the test system is Colo205 tumor cells. Description: Method A: Methylene Blue Growth Inhibition Assay, Colo205. Format: cell-based. To be noted: Homo sapiens, COLO 205, 72 h, 3 days. On the procedure:
as §1, §2

B-Raf, sequence (P15056 whole entry): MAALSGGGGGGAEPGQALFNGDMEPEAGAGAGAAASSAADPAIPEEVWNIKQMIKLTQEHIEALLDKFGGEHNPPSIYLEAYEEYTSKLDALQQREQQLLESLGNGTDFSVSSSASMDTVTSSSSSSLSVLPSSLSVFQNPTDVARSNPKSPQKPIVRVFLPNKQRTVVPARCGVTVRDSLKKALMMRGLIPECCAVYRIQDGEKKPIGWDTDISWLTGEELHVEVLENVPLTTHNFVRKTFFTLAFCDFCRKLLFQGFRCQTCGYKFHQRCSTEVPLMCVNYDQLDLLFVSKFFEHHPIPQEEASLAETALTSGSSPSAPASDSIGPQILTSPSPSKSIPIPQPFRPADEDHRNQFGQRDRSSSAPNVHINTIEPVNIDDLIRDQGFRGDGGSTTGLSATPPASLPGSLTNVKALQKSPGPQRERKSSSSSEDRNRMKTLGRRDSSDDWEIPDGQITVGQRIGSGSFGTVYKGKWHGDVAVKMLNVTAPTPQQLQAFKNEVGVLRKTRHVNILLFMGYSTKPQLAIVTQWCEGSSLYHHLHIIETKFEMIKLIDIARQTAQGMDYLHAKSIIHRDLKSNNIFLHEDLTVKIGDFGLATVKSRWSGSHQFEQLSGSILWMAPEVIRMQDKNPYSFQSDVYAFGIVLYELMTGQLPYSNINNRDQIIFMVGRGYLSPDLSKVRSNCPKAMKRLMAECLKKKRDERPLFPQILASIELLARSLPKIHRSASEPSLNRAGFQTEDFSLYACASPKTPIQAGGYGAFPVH

Regarding `Cc1nc(-c2cccc(NC(=O)c3cc(F)ccc3F)c2)c(-c2ccnc(Nc3ccc(OCCN(C)C)c(Cl)c3)n2)o1` [Example 142], the pIC50 in assay [1] is less than 6.00.
In assay [2], `COc1ccc(Nc2nccc(-c3sc(N)nc3-c3cccc(NC(=O)c4c(F)cccc4F)c3)n2)cc1N1CCNCC1` [Example 18, N-[3-(2-Amino-5-{2-[(4-methoxy-3-piperaziN-1-ylphenyl)amino]pyrimidiN-4-yl}-1,3-thiazol-4-yl)phenyl]-2,6-difluorobenzamide] showed a pIC50 of more than 7.00.
Compound `Cc1nc(-c2cccc(NC(=O)c3c(F)cccc3F)c2)c(-c2ccnc(Nc3ccc(OC4CCN(C(=O)OCc5ccccc5)CC4)c(F)c3)n2)s1` [Example 106] showed a pIC50 in assay [3] of 6.00 to 7.00.
Same read-out and setting: then `Cc1cc(-c2sc(N)nc2-c2cccc(NC(=O)c3c(F)cccc3F)c2)nc(Nc2cccc(F)c2)n1` [Example 48, N-[3-(2-Amino-5-{2-[(3-fluorophenyl)amino]-6-methyl-4-pyrimidinyl}-1,3-thiazol-4-yl)phenyl]-2,6-difluorobenzamide], with less than 6.00.
Turning to `COc1cc(Nc2nccc(-c3sc(N)nc3-c3cccc(NC(=O)c4c(F)cccc4F)c3)n2)cc(OC)c1OC` [Example 16, N-[3-(2-Amino-5-{2-[(3,4,5-trimethoxyphenyl)amino]pyrimidiN-4-yl}-1,3-thiazol-4-yl)phenyl]-2,6-difluorobenzamide], in assay [4], the negative logarithm of the IC50 (pIC50) is more than 7.00.
As to `CCc1nc(-c2cccc(NC(=O)c3c(F)cccc3F)c2)c(-c2ccnc(Nc3cccc(CN4CCCC4)c3)n2)s1` [Example 115, N-{3-[2-Ethyl-5-(2-{[3-(1-pyrrolidinylmethyl)phenyl]amino}-4-pyrimidinyl)-1,3-thiazol-4-yl]phenyl}-2,6-difluorobenzamide], in assay [3], the pIC50 is 6.00 to 7.00.
